In patent US5635379A, “D-2-alkyl-tryptophan and peptides containing same” (Deghenghi; Romano, priority 1990, dated 1997):
Square brackets hold non-standard residues; d marks the D form. Peptide text beside a SMILES is read from it. dTrp(2-Me) = Cc1[nH]c2ccccc2c1C[C@@H](N)C(=O)O

Tests used:
Growth Hormone release = assay: GH release in 10-day old rats after subcutaneous injection; type: in vivo; conditions: s.c. 160 μg/kg
Method: The peptides of Examples 4 and 5 were tested as Growth Hormone releasers in rats. GH released in a series of seven 10-day old rats, injected subcutaneously with a standard dose of 160 μg/kg and sacrificed 15 minutes after the injection.

GH release [1] = assay: GH-releasing activity s.c. in male rats anesthetized with ketamine and xilazine; type: in vivo, Sprague Dawley rats
Method: (§1) Male Sprague Dawley rats (Charles River, Calco, Italy) of 2-3 months of age were used. Rats were housed at 22 +2° C., with lighting cycle of 14 h light: 10 h dark (lights on from 06.00 to 20.00 h), at least 10 days before starting the experiments. A standard dry diet and water were available ad libitum.
(§2) Between 09.00-10.00 h rats were anesthetized with ketamine (58 mg/kg, Inoketam, VIRBAC, Milano) and xilazine (12 mg/kg, Rompun, Bayer, Milano). Thirty minutes later, a blood sample ([…]) was withdrawn from the exposed jugular vein, peptides were injected intravenously or subcutaneously, and further blood samples were collected 10, 20 and 30 minutes later.
(§3) Medium and plasma GH was measured by radioimmunoassay using materials supplied by the NIADDK Bethesda, Md. Values were expressed in term of NIASSK-rat-GH-RP-2 standard (potency 2 IU/ml), as ng/ml of medium or plasma.
(§4) The minimum detectable value of rat was 1.0 ng/ml; intra-assay variability was 6%. To avoid inter-assay variation, samples from each experiment were assayed simultaneously.

growth hormone secretion = assay: Growth hormone secretion in young healthy male volunteers; type: in vivo, human; conditions: young (20-30 years old) healthy male volunteers, various dosages
Method: The effects of HEXARELIN on growth hormone secretion in young (20-30 years old) healthy male volunteers were measured after the administration of various dosages.

[2] = Hydrophobicity comparison (FIG. 12); type: physicochemical
GH release [3] = assay: GH response in conscious, freely-moving rats after antiserum pretreatment and i.v. peptide; type: in vivo
Method: Sixty male rats were prepared with indwelling venous catheters under ether anesthesia three days before experimentation. On the day of experimentation, all animals were given an iv heparin injection (100 IU; 0630 h). At 0700 h, animals were treated with 0.5 ml of either normal serum (control-as), somatostatin antiserum (somatostatin-as; 0.25 ml+0.25 ml saline), growth hormone-releasing hormone antiserum (GHRH-as; 0.25 ml+0.25 ml saline), or both somatostatin antiserum and growth hormone-releasing hormone antiserum (0.25 ml somatostatin-as+0.25 ml GHRH-as). Blood sampling began […] after antiserum pretreatment, with blood samples collected every 20 minutes for three hours. After the 180 minute sample (1100 h), animals were treated iv with 25 μg/kg of either Hexarelin or GHRP-6. Blood samples were then collected at 5, 10, 15, 20 30, 40, and 60 minutes after peptide treatment. All samples were centrifuged immediately and the plasma frozen until assayed. The peak GH response to Hexarelin and GHRP-6 as well as the area under the response curves (AUCs) for the thirty minutes following peptide injection were calculated. Data were subjected to repeated measures analysis of variance and are expressed as mean ±SEM.

GH release [4] = assay: GH-releasing activity i.v. in male rats anesthetized with ketamine and xilazine; type: in vivo, Sprague Dawley rats
Method: as §1, §2, §3, §4

GH release [5] = assay: GH release in pentobarbital-anesthetized rats, s.c.; type: in vivo, Sprague Dawley rats
Method: Male Sprague Dawley rats weighing 225-250 g were divided in groups of five animals each. Rats were anesthetized with Nembutal injected intraperiteonally at 50 mg/kg, fifteen minutes prior to the first blood withdrawal taken over heparin by cardiac puncture (for determination of basal GH).
Subcutaneous injections of either HEXARELIN or GHRP-6 were given immediately after the first blood collection, and additional blood samples were collected 15 and 40 minutes later.
Measurement of rat GH was performed by a standard double antibody radioimmunoassay with reagents supplied by the National Pituitary Agency and the National Institute of Arthritis, Diabetes, and Digestive and Kidney Diseases. The standards used were NIADDK-NIH-rGH-RP-2. Statistical data were obtained with the Student's t Test at a significance level of 5%.

[6] = tested on: pituitary cell monolayers; assay: GH-releasing activity in pituitary cell culture (monolayers); type: cell-based, Sprague Dawley rats; conditions: for GH in medium: 2 hours incubation
Method: as §1
Pituitary tissue used for cell dissociation included only the anterior lobe. Briefly, pituitary glands were collected in sterile F-10 medium and after cutting into small fragments incubated twice (30 minutes each) at 37° C. in F-10 medium containing 6% fetal calf serum and collagenase (2.5 mg/ml) (Boehringer, Mannheim GmbH, Germany). Fragments were then washed in Dulbecco's PBS, Ca^2+ and Mg^2+ free medium and mechanically dissociated. Single cell suspension was planted onto 24-well (2×10^5 cells/well) culture plates. The cells were incubated in F-10 medium supplemented with 10% horse serum, 4% fetal calf serum and gentamycin (25 μg/ml), in a humidified atmosphere of 5% CO2 and 95% air at 37° C.
After 3 days, the medium was removed and the cells washed twice with serum free F-10, then incubated with 1 ml of F-10 containing 0.1% BSA only, or with added various concentrations of synthetic peptides.
After incubation for 2 h at 37° C., media were collected and stored frozen at -20° C. until assayed for measurement of GH content.
as §3, §4

[7] = i.v. 25 μg/kg peptide, pooled over antiserum pretreatments

Cc1[nH]c2ccccc2c1C[C@@H](NC(=O)[C@@H](N)Cc1cnc[nH]1)C(=O)N[C@@H](C)C(=O)N[C@@H](Cc1c[nH]c2ccccc12)C(=O)N[C@H](Cc1ccccc1)C(=O)N[C@@H](CCCCN)C(N)=O [Example 4, His-D-2-methyl-Trp-Ala-Trp-D-Phe-Lys-NH2] (H-H[dTrp(2-Me)]AW[dF]K-NH2)
activity as Growth Hormone releaser (Growth Hormone release): very active
GH (Growth Hormone release; sacrificed 15 minutes after injection): 201 ng/mL
plasma GH (GH release [1]; s.c. 150 μg/kg, 10 min): 107.1 ± 17.7 ng/mL
plasma GH (GH release [1]; s.c. 150 μg/kg, 20 min): 156.6 ± 18.7 ng/mL
plasma GH (GH release [1]; s.c. 150 μg/kg, 30 min): 86.0 ± 18.9 ng/mL
plasma GH (GH release [1]; s.c. 150 μg/kg, time 0 min (before injection)): 12.0 ± 4.0 ng/mL
plasma GH (GH release [1]; s.c. 300 μg/kg, 10 min): 80.6 ± 11.0 ng/mL
plasma GH (GH release [1]; s.c. 300 μg/kg, 20 min): 171.7 ± 22.0 ng/mL
plasma GH (GH release [1]; s.c. 300 μg/kg, 30 min): 102.7 ± 17.0 ng/mL
plasma GH (GH release [1]; s.c. 300 μg/kg, time 0 min (before injection)): 12.0 ± 4.0 ng/mL
plasma GH (GH release [1]; s.c. 600 μg/kg, 10 min): 90.7 ± 16.6 ng/mL
plasma GH (GH release [1]; s.c. 600 μg/kg, 20 min): 187.5 ± 15.4 ng/mL
plasma GH (GH release [1]; s.c. 600 μg/kg, 30 min): 115.3 ± 19.1 ng/mL
plasma GH (GH release [1]; s.c. 600 μg/kg, time 0 min (before injection)): 23.0 ± 6.0 ng/mL
effect on plasma GH, comparison with GHRP-6 (GH release [1]; s.c. 150, 300 and 600 μg/kg, 10, 20 and 30 minutes): more effective than GHRP-6 at all the considered times
effect on growth hormone secretion (growth hormone secretion): effective in vivo
hydrophobicity compared with GHRP-6 [2]: greater hydrophobicity than GHRP-6
Mean GH (GH release [3]; [7]): 235 ± 21 ng/mL
Peak GH (GH release [3]; [7]): 552 ± 59 ng/mL
GH AUC (GH release [3]; i.v. 25 μg/kg peptide, thirty minutes following injection, pooled over antiserum pretreatments): 7366 ± 912 ng/ml/30 min
overall GH response compared with GHRP-6 (GH release [3]; i.v. 25 μg/kg, pooled results): more effective in eliciting a higher mean GH response as compared to GHRP-6
plasma GH (GH release [4]; i.v. 150 μg/kg, 10 min): 412.7 ± 39.7 ng/mL
plasma GH (GH release [4]; i.v. 150 μg/kg, 20 min): 132.2 ± 12.7 ng/mL
plasma GH (GH release [4]; i.v. 150 μg/kg, 30 min): 44.0 ± 6.0 ng/mL
plasma GH (GH release [4]; i.v. 150 μg/kg, time 0 min (before injection)): 15.0 ± 2.9 ng/mL
plasma GH (GH release [4]; i.v. 300 μg/kg, 10 min): 438.5 ± 26.8 ng/mL
plasma GH (GH release [4]; i.v. 300 μg/kg, 20 min): 213.8 ± 34.2 ng/mL
plasma GH (GH release [4]; i.v. 300 μg/kg, 30 min): 48.1 ± 8.8 ng/mL
plasma GH (GH release [4]; i.v. 300 μg/kg, time 0 min (before injection)): 13.5 ± 2.0 ng/mL
plasma GH (GH release [4]; i.v. 600 μg/kg, 10 min): 478.3 ± 19.8 ng/mL
plasma GH (GH release [4]; i.v. 600 μg/kg, 20 min): 164.2 ± 13.2 ng/mL
plasma GH (GH release [4]; i.v. 600 μg/kg, 30 min): 54.5 ± 13.3 ng/mL
plasma GH (GH release [4]; i.v. 600 μg/kg, time 0 min (before injection)): 18.4 ± 4.3 ng/mL
effect on plasma GH concentrations (GH release [4]; i.v. 150, 300 and 600 μg/kg, 10 and 20 minutes after administration): significant increases
POST-DRUG PLASMA GH (GH release [5]; s.c. 10 μg/kg, 0 min (basal)): 63 ± 58 ng/mL
POST-DRUG PLASMA GH (GH release [5]; s.c. 10 μg/kg, 15 min): 95 ± 44 ng/mL
POST-DRUG PLASMA GH (GH release [5]; s.c. 10 μg/kg, 40 min): 88 ± 29 ng/mL
POST-DRUG PLASMA GH (GH release [5]; s.c. 25 μg/kg, 0 min (basal)): 56 ± 21 ng/mL
POST-DRUG PLASMA GH (GH release [5]; s.c. 25 μg/kg, 15 min): 388 ± 99 ng/mL
POST-DRUG PLASMA GH (GH release [5]; s.c. 25 μg/kg, 40 min): 100 ± 51 ng/mL
POST-DRUG PLASMA GH (GH release [5]; s.c. 50 μg/kg, 0 min (basal)): 32 ± 16 ng/mL
POST-DRUG PLASMA GH (GH release [5]; s.c. 50 μg/kg, 15 min): 439 ± 69 ng/mL
POST-DRUG PLASMA GH (GH release [5]; s.c. 50 μg/kg, 40 min): 81 ± 13 ng/mL
GH in medium ([6]; 10^-6 M): 558.0 ± 19.1 ng/well
GH in medium ([6]; 10^-7 M): 589.1 ± 17.9 ng/well
GH in medium ([6]; 10^-8 M): 557.8 ± 15.9 ng/well
GH secretion versus basal ([6]; 10^-8 to 10^-6 M, two hours): stimulation of GH secretion over basal secretion
